# According to the METLIN SMRT retention time set (Domingo-Almenara et al. 2019):
# Test: gradient 5% acetonitrile 3 min, to 50% in 2 min, to 85% in 15 min, held 3 min, 100 µL/min
# Details: column: Zorbax Extend-C18 2.1 x 50 mm; eluents: water / acetonitrile, 0.1% formic acid
# Procedure, shortened: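 In both positive and negative ionization mode, a quadrupole time-of-flight mass spectrometer coupled to HPLC analyzed pure standards run in mixtures of ~100 molecules. The Zorbax Extend-C18 column (2.1 × 50 mm, 1.8 μm) was operated at 100 μL/min with water and acetonitrile, each containing 0.1% formic acid. The dead volume was 40 μL and the dwell volume 900 μL. Retention time came from adduct peaks that were computationally picked and individually inspected by hand.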
row,SMILES,RP-LC retention time
1,O=C(Nc1ccccc1Cl)N1CCC(n2c(C(F)(F)F)nc3cccnc32)CC1,912 s
2,COc1cccc(C(O)CN2CCN(c3ccc(C)cc3)CC2)c1 (stereo not drawn),677 s
3,COc1ccc(OCc2nc(-c3ccc4c(c3)oc(=O)n4C(C)C)no2)cc1,1110 s
4,CCC(C)CN(CC(=O)N1CCc2sccc2C1COc1ccccc1F)C(=O)COC (stereo not drawn),958 s
5,CCOC(=O)C1CCN(C(=O)c2sc(Nc3cccc(C)n3)nc2C)CC1,774 s
6,COc1cc2c(cc1OC)C(C(=O)NCC1COc3ccccc3O1)C(c1cccs1)N(C)C2=O (stereo not drawn),842 s
7,Cc1c(C(=O)N2CCCC2)cnn1-c1ncccc1-c1nc(C2CC2)no1,706 s
8,O=C(Nc1ccc2c(c1)OCCO2)c1noc2c1CCCC2,870 s
9,CCCNC(=O)C1CCCN(c2nc3ncn(CC(=O)NCc4ccc(OC)cc4)c(=O)c3s2)C1 (stereo not drawn),680 s
10,CCc1nc2cc(-c3noc(-c4cncc(Br)c4)n3)ccc2o1,1160 s
11,O=C(NCc1ccc(F)cc1)c1cc(N2CCCC2)n2nccc2n1,957 s
12,Cc1cccc(NC(=O)Cn2c(N3CCOCC3)nc(C)cc2=O)c1,672 s
13,COc1cc(-c2noc(CCn3nc(-c4ccccc4)ccc3=O)n2)cc(OC)c1OC,955 s
14,COc1cccc2oc(-c3ccccc3)cc(=O)c12,900 s
15,O=C(c1cnccn1)N1CCCC1c1nc(-c2ccc(F)cc2F)no1 (stereo not drawn),782 s
16,Cc1ccc(-c2nccn3cc(C(=O)NC(C)C)nc23)cc1,883 s
17,O=C(CN1CCN(Cc2ccccc2)C1=O)NCc1cccc(F)c1,761 s
18,CCCNC(=O)C1CCN(S(=O)(=O)c2ccc3c(c2)sc(=O)n3CCC)CC1,824 s
19,CC(=O)N1CCC2(CC1)OC(=O)C(C)=C2C(=O)NCCCN1CC(C)CC(C)C1 (stereo not drawn),587 s
20,Cc1ccc(CNS(=O)(=O)c2cc(-c3nc(C(C)(C)C)cs3)cs2)cc1C,1350 s
21,Cc1cc2c(=O)n(CC(=O)NCc3ccc(F)cc3)ccc2s1,751 s
22,Cc1sc(NC(=O)c2ccc(Br)cc2)nc1-c1ccc2c(c1)NC(=O)C(C)O2 (stereo not drawn),1040 s

row,SMILES,RP-LC retention time
1,O=C(CSc1ccc(N2CCCC(C(=O)NC3CC3)C2)nn1)NCc1cc(F)cc(F)c1 (stereo not drawn),642 s
2,CCc1noc(NC(C)=O)c1-c1ccc(C)c(S(=O)(=O)NC(C)CC)c1 (stereo not drawn),787 s
3,O=C1C(=O)N(C2CCN(C(=O)c3ccc(Br)o3)CC2)CCN1Cc1ccccc1,706 s
4,CCOC(=O)c1c(S(=O)(=O)N2CCC(C(=O)Nc3cccnc3)CC2)c(C)n(C)c1C,623 s
5,CCCC(CCC)C(=O)N1CCCN(C2=NS(=O)(=O)C(c3ccc(C)cc3)=C2C)CC1,1010 s
6,CCC1CCCCN1C(=O)c1cnc2nc(C)ccc2c1Nc1cc(OC)ccc1OC (stereo not drawn),689 s
7,COc1ccc(C(=O)NCCc2nc3cccnc3n2C(C)C)cc1,649 s
8,O=C(NC1CCN(C(=O)c2cc(-c3cccc(Cl)c3)n[nH]2)CC1)c1cccs1,718 s
9,O=C(Nc1ccc(C2(C(=O)N3CCN(c4ccccc4F)CC3)CCC2)cc1)C1CC1,944 s
10,Cc1ccc(Cn2c(=O)c(N3CCC(NC(=O)NC(C)C)CC3)nc3cccnc32)cc1,986 s
11,Cc1noc([C@@H]2CC(F)(F)CN2C(=O)c2ccco2)n1,706 s
12,COc1ccc(C)cc1NC(=O)C1CCN(S(C)(=O)=O)c2cc(Cl)ccc2O1 (stereo not drawn),1100 s
13,O=C1CCN(C2OC(CO)C(O)C2O)C(=O)N1 (stereo not drawn),1040 s
14,Cc1ccc(N2CC(c3nc(-c4ccc5c(c4)nc(C)c(=O)n5C4CCCC4)no3)CC2=O)cc1 (stereo not drawn),1100 s
15,COCCNC(=O)C1CCCN(C(=O)c2[nH]c(C)c(C(=O)OC)c2C)C1 (stereo not drawn),624 s
16,C=CCN1C(=O)COc2ccc(-c3nc(NC(=O)c4cccs4)sc3C)cc21,998 s
17,Cc1ccc(-c2nc(C3CCN(C(=O)C4CC(=O)N(c5ccc(C)c(C)c5)C4)CC3)no2)cc1 (stereo not drawn),1070 s
18,COc1ccc(-n2nc(SCC(=O)Nc3ccc(Cl)cc3)ccc2=O)cc1,629 s
19,CC(=O)NCC(=O)N1CC(F)(F)C[C@H]1c1nc(C2CC2)no1,639 s
20,CCOc1ccc(CNC(=O)CN2CCN(Cc3ccc(F)cc3)C2=O)cc1OC,751 s
21,COc1ccc2c(c1)c1ncn(Cc3nc(C4CC4)no3)c(=O)c1n2Cc1c(F)cccc1Cl,1070 s
22,CCCC(=O)N1C[C@@H]2CCCN3CCC[C@@H]([C@H]23)[C@H]1CCCC(=O)NCC1CC1,587 s

row,SMILES,RP-LC retention time
1,CCCS(=O)(=O)N1CC(c2nnc(-c3ccncc3)o2)C2(CCOCC2)C1 (stereo not drawn),625 s
2,COc1ccc2[nH]c(=O)c(CCC(=O)NCc3ccc(OC)c(OC)c3)cc2c1,648 s
3,Cc1cc2[nH]c(C(=O)Nc3ccc(F)cc3Br)c(CN(C)C)c2s1,678 s
4,CCOc1ccc(NC(=O)C2CCCN(c3nc4ccccc4nc3C(F)(F)F)C2)cc1 (stereo not drawn),1210 s
5,O=C(Cn1ccn2nc(-c3ccccc3)c(CO)c2c1=O)Nc1ccccc1F,865 s
6,CCCN1CCN(C(=O)c2ccc(CN3CCN(Cc4ccccc4)C(=O)C3=O)cc2)CC1,811 s
7,CC(C)N1CC(c2nc(-c3ccccc3)no2)C2(CCCC2)C1 (stereo not drawn),737 s
8,Cc1ccc(CNC(=O)Nc2ccc3nnc(C)n3c2)cc1,661 s
9,CC(Cc1ccco1)NC(=O)C1CCN(S(=O)(=O)c2ccc3c(c2)sc(=O)n3C)CC1 (stereo not drawn),807 s
10,O=C(c1cccc(Cl)c1)N1CCN(C(=O)c2nnn3c2COC(c2ccc(F)cc2)C3)CC1 (stereo not drawn),913 s
11,CN(CC(=O)NC1CCCC1)S(=O)(=O)c1c[nH]c(C(=O)N2CCCC2)c1,686 s
12,O=C(Cc1cn2cc(Cl)ccc2n1)Nc1ccccc1,614 s
13,CCN(C(=O)Cn1nc2cc(-c3ccccc3)nc(C)n2c1=O)c1cccc(C)c1,862 s
14,CCCSc1ncnc2[nH]ncc12,837 s
15,COc1ccccc1C1=NN(C(C)=O)C(C)(c2cccc(OC(C)=O)c2)O1 (stereo not drawn),852 s
16,O=C(Cn1c(=O)n(C2CC2)c(=O)c2nscc21)NCCC1=CCCCC1,776 s
17,CCOc1ccc(-c2ccc(OCCNS(=O)(=O)c3ccccc3Cl)nn2)cc1,891 s
18,CCc1ccc(NC(=O)C2CCN(C(=O)c3ncn4c3COC(c3ccc(F)cc3)C4)CC2)cc1 (stereo not drawn),890 s
19,COc1ccccc1-c1noc(C2CCCN2C(=O)c2cnccn2)n1 (stereo not drawn),720 s
20,COc1ccccc1N1CCN(c2ccc3cc(S(=O)(=O)N4CCCC4)ccc3n2)CC1,855 s
21,COc1ccccc1NC(=O)C12CCC(C)(C(=O)C1)C2(C)C (stereo not drawn),848 s
22,O=C(NCc1ccc2c(c1)OCO2)C1CCCN(S(=O)(=O)c2c[nH]c(C(=O)N3CCCC3)c2)C1 (stereo not drawn),738 s

row,SMILES,RP-LC retention time
1,CCCCC(=O)N1CCc2c(c(C(=O)N3CCCC(C(=O)Nc4ccccc4C)C3)nn2C)C1 (stereo not drawn),797 s
2,O=C(C1=NN(Cc2ccc(F)cc2)c2cc(Cl)ccc2S1(=O)=O)N1CCOCC1,899 s
3,CCNC(=O)c1ccc(-n2nc(C)c(C)c2C)nc1,758 s
4,COc1ccc(NC(=O)c2cn3c(n2)CSCC3)c(C)c1,674 s
5,O=C(NCc1nc(-c2ccc(NS(=O)(=O)c3ccccc3)cc2)no1)c1cccs1,832 s
6,CC1CCN(c2nc(-c3ccc([N+](=O)[O-])cc3)nc3ccccc23)CC1,1030 s
7,COc1ccc(N2CCN(S(=O)(=O)c3cc(-c4nnc(C5CC5)o4)co3)CC2)cc1,909 s
8,O=C(CSc1nc(-c2ccccc2)ns1)Nc1nc2ccccc2s1,1000 s
9,O=C(c1ccc(OCC2CCN(C(=O)C3CCCC3)CC2)cc1)N1CCOCC1,764 s
10,O=C(Cn1c(=O)c2cccn2c2ccccc21)NCCCc1ccccc1,874 s
11,COc1ccc(-c2noc(-c3cccn3CC(=O)NCc3ccco3)n2)cc1F,984 s
12,COc1ccc(-c2cn3cccnc3n2)cc1NC(=O)c1cccc(OC)c1OC,718 s
13,COc1ccc(C(=O)N2CCC3(CC2)NC(=O)c2cc(F)ccc2N3C)cc1OC,715 s
14,Cc1ccc(Cl)cc1NS(=O)(=O)c1cc(-c2nc(C(C)C)cs2)cs1,1230 s
15,CC1CCCN(c2ccc(-c3noc(CN4CCN(c5ccccc5F)CC4)n3)cn2)C1 (stereo not drawn),1090 s
16,COc1cc(C(=O)N2CCC3(CC2)NC(=O)c2cc(F)ccc2N3C)cc(OC)c1OC,655 s
17,Cc1ccc(-c2nnc(Cc3nc(-c4ccccc4C)no3)o2)cc1C,842 s
18,O=C1C(N2CCN(S(=O)(=O)c3ccc(Cl)cc3)CC2)CCN1CCc1ccccc1 (stereo not drawn),718 s
19,COc1ccc(Cl)cc1NC(=O)Cn1ccc2ccc(-c3nnc(C)o3)cc21,898 s
20,Cc1cccc(Nc2nc3ccncc3n(Cc3ccccc3)c2=O)c1,673 s
21,O=S(=O)(NCc1ccc(F)cc1)c1ccc(N2CCCCS2(=O)=O)cc1,777 s
22,CCN1CCN(C(=O)CSc2nccnc2Sc2ccccc2)CC1,640 s
